Experiment: Stability of DOPE in DOTMA/DOPE liposomes as a function of pH (HPLC lipid recovery, 37° C.)
Format: physicochemical
Settings: under all conditions (pH 4-7), up to 6 weeks
Protocol: The stability of DOPE in DOTMA/DOPE liposomes was investigated after adjusting the pH to different values between pH 7 and pH 4. For pH 7, 10 mM HEPES buffer was used. For all lower pH values, acetic acid buffers (all 10 mM) were used (see Table 1). R6 glass type I vials were filled with 2 mL of the liposomes dispersion and stored in a stability chamber at 37° C. pH values were measured by potentiometry using a WTW pH-meter inoLab pH 7310, Weilheim, Germany.
The lipid stability was tested at different time points up to 6 weeks after preparation of the liposomes by measuring the lipid concentration in the liposome preparation using a HPLC system (Agilent Technologies 1200 equipped with DAD and ELSD detectors, Santa Clara, Calif., USA).
Plotted is the normalized recovery of DOPE (in percent) from the DOTMA/DOPE liposomes. […] In contrast, at pH 5, already degradation with a recovery of only 80% of the initial value was observed.

CCCCCCCC/C=C\CCCCCCCCOCC(C[N+](C)(C)C)OCCCCCCCC/C=C\CCCCCCCC (stereo not shown) [DOTMA, 1,2-di-O-octadecenyl-3-trimethylammoniumpropane]
degradation of DOTMA in DOTMA/DOPE liposomes: no indication for degradation

Reference: US11173120B2, “Stable formulations of lipids and liposomes” (BioNTech RNA Pharmaceuticals GmbH, priority 2014, dated 2021)
